Laboratory results published in paper PMC7024313, “Identification and Repurposing of Trisubstituted Harmine Derivatives as Novel Inhibitors of Mycobacterium tuberculosis Phosphoserine Phosphatase” (Molecules, 2020).

Biological target: T1, SerB2 (M. tuberculosis phosphoserine phosphatase) (Mycobacterium tuberculosis, UniProt O53289)
Assay: malachite green phosphatase assay, slope replot fitted to Hill-type model
Format: biochemical
Source text: malachite green phosphatase assay, slope replot fitted to Hill-type model on SerB2 (M. tuberculosis phosphoserine phosphatase)

T1 sequence (O53289 whole entry): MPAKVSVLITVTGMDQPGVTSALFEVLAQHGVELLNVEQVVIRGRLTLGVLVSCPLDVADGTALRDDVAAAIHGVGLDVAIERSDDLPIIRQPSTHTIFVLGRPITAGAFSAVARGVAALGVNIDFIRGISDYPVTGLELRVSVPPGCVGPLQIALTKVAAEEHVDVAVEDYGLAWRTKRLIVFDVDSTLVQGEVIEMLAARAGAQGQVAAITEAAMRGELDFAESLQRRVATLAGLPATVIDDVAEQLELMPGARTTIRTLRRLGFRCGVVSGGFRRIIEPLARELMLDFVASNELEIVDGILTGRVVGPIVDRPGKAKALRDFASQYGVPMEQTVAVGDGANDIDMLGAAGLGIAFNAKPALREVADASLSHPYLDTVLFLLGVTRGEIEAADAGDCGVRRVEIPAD

First: Cc1c2c(cc[n+]1CCC(C)C)c1ccc(OCCC(C)C)cc1n2CCC(C)C [compound 88, 88]
Second: Cc1c2c(cc[n+]1CCc1ccccc1)c1ccc(OCC3CCCCC3)cc1n2CC1CCCCC1 [compound 91, 91]
The Ki of the first is 5.6-fold higher: 18.3 ± 2.3 µM for the first, 3.27 ± 0.12 µM for the second.

First: Cc1c2c(cc[n+]1Cc1ccc3ccccc3c1)c1ccc(OCc3ccccc3)cc1n2Cc1ccccc1 [compound 95, 95]
Second: Cc1c2c(cc[n+]1CCC1CCCCC1)c1ccc(OCC3CCCCC3)cc1n2CC1CCCCC1 [compound 124, 7-(cyclohexylmethoxy)-9-(cyclohexylmethyl)-1-methyl-2-(2-cyclohexylethyl)-β -carboline-2-ium bromide]
The Ki of the first is 3.8-fold higher: 6.66 ± 0.39 µM for the first, 1.75 ± 0.11 µM for the second. The second binds more tightly here.

Biological target: T1, SerB2 (M. tuberculosis phosphoserine phosphatase)
Assay: malachite green phosphatase assay
Format: biochemical
Source text: malachite green phosphatase assay on SerB2 (M. tuberculosis phosphoserine phosphatase)

`Cc1c2c(cc[n+]1CCC(C)C)c1ccc(OCC3CCCCC3)cc1n2CC1CCCCC1` [compound 90, 90] and `Cc1c2c(cc[n+]1CCc1ccccc1)c1ccc(OCc3ccccc3)cc1n2Cc1ccccc1` [compound 94, 94] are within error of each other in inhibition at 10 µM: 16.5 ± 13.3% for the first, 15.6 ± 4.3% for the second.
